Key:
[1] = system: tau; assay: Tau mislocalization after TBI (tau and NeuN immunohistochemistry); assay type: in vivo, mouse; conditions: vs. TBI+Vehicle
Method: (§1) Drug preparation and administration: CGP3466B (Sigma-Aldrich, SML1941) was dissolved in DMSO and then diluted in sterile saline. The final working stock was 0.0014 mg/ml for administering the 0.014 mg/kg dose. Intraperitoneal administration of CGP3466B was initiated 15 min or 24 h after injury, and tissues were harvested 6 h (for SNO-GAPDH, SNO-SIRT1 measurement) or 2 weeks (for ac-tau measurement) later, respectively. Salsalate (AdipoGen, AG-CR1-3574) was dissolved in DMSO and then diluted in sterile PBS. The final working stocks were as follows: 2.5 mg/ml (25 mg/kg dose), 1 mg/ml (10 mg/kg dose), 0.5 mg/ml (5 mg/kg dose). Daily intraperitoneal administration of salsalate was initiated 24 hr after injury and continued throughout behavioral testing. P7C3-A20 and FK866 (Sigma-Aldrich, F8557) were first dissolved in 1 vol of DMSO, followed by addition of 4 vol of Kolliphor and vigorously vortexing. The solution was then diluted with 30 vol of filtered 5% dextrose (pH 7.0). EX527 (Selleckchem, S1541) was dissolved in 1% DMSO+30% polyethylene glycol+1% Tween 80. Daily intraperitoneal administration of P7C3-A20 was initiated 24 hr after poly-traumatic brain injury. EX527 (10 mg/kg) was administer once a day and FK866 was treated twice per day, with the first injection given at the same time as P7C3-A20 (20 mg/kg) and the second injection given 6 h later (LoCoco et al., 2017 eLife). Diflunisal was first dissolved in 1 vol of DMSO, followed by addition of 2 vol of Kolliphor and vigorously vortexing. The solution was then diluted with 7 vol of saline to the appropriate concentration for administration at 25, 50, or 100 mg/kg.
(§2) The pressure in the side not containing the mouse was increased to cause membrane rupture at 20 pounds per square inch (PSI), which generates an about 1-2 ms jet airflow of 137.9+/−13.79 kPa that passes through the animal's head. The head remains untethered in a padded holder, while the body is fully shielded by a metal tube. The jet of air produced upon membrane rupture provides a concussive injury, which is followed by acceleration/deceleration of the head and then exposure to the ensuing blast wave within an enclosed space.
Immunohistochemistry: Mice were transcardially perfused with cold 1× phosphate-buffered saline (PBS) followed by 4% paraformaldehyde in PBS at pH 7.4 under anesthesia. Brains were carefully removed and post-fixed in 4% paraformaldehyde overnight at 4° C. Brains were immersed in 30% sucrose in PBS for 72 h at 4° C. and then rapidly frozen in 2-methylbutane pre-cooled to −20° C. with dry ice. Brains were cut coronally (40 μm) and sections were stored in cryoprotective solution (150 mM Ethylene glycol, 100 mM glycerol, 250 mM PBS) at −20° C. […]

[2] = system: p300/CBP; assay: p300/CBP activity after TBI (acetylation of p300/CBP, H2AK5, H3K18; western blot); assay type: in vivo, mouse; conditions: vs. TBI+Vehicle
Method: as §1, §2
Western blotting: Western blotting was performed as described previously (Min et al., 2010), with the 9AB antibody against acetylated-tau generated in the Gan laboratory. […] Lysates were centrifuged at 170,000 g at 4° C. for 15 min and at 18,000 g at 4° C. for 10 min, after which protein concentrations of supernatants were measured by bicinchoninic acid assay (Thermo Scientific, A53225). […]

| Compound | post-TBI tau mislocalization ([1]; CGP3466B 0.014 mg/kg IP daily, initiated 24 hours after TBI) | ac-p300/CBP in cerebral cortex ([2]; CGP3466B 0.014 mg/kg, after TBI) | post-TBI tau mislocalization ([1]; low-dose salsalate daily IP from 24 h after TBI) | ac-H2AK5 levels in cerebral cortex and hippocampus ([2]; low-dose salsalate after TBI) | ac-H3K18 levels in cerebral cortex and hippocampus ([2]; low-dose salsalate after TBI) | acetylation of p300/CBP ([2]; low-dose salsalate after TBI) |
| --- | --- | --- | --- | --- | --- | --- |
| C#CCN(C)CC1=Cc2ccccc2Oc2ccccc21.O=C(O)/C=C\C(=O)O [CGP3466B] | protects mice from post-TBI tau mislocalization | reduces ac-p300/CBP in cerebral cortex after TBI | – | – | – | – |
| O=C(Oc1ccccc1C(=O)O)c1ccccc1O [salsalate] | – | – | protects mice from post-TBI tau mislocalization | significantly reduced levels of ac-H2AK5 and ac-H3K18 | significantly reduced levels of ac-H2AK5 and ac-H3K18 | acetylation of p300/CBP was also significantly reduced |
